# Legend:
# [1] = Phase I metabolism kinetics (parent toxin loss) in NADPH-fortified human liver microsomes, LC-MS/MS; format: in vitro ADME; conditions: for microsomal CLint: human, pH 7.4, human LMs, read-out: CLint (intrinsic clearance)
# Protocol: (§1) Pooled human LMs and pooled Sprague–Dawley rat hepatic microsomes, both originating from male donors, were purchased from Sigma-Aldrich (St. Louis, MO, USA) and Gibco, Thermo Fisher Scientific (Waltham, MA, USA), respectively. Porcine LMs were prepared according to an in-house-developed protocol based on the publication of Knights et al.[32] The liver of an approximately four-month-old female “Large White” (or “German Edelschwein”) pig was obtained from a local slaughterhouse. After slaughtering, the liver was placed on ice for about an hour, kept in ice-cold 50 mM tris(hydroxymethyl)aminomethane hydrochloride (Tris–HCl) (pH 7.4) for an additional hour while being transported, and processed immediately.
# (§2) The kinetics of the phase I metabolism of AOH and AME was investigated by incubating human, rat (both 1 mg protein/mL), and porcine LMs (2 mg protein/mL) with 1, 10, 20, 50, and 100 μM AOH or 1, 10, 20, and 50 μM AME based on the protocol by Al-Subeihi et al.[34] The incubation solution contained a final concentration of 3 mM NADPH and 1 mM ascorbic acid in 200 mM Tris–HCl (pH 7.4). After preincubation (37 °C, 1 min, mixing at 250–300 rpm), the toxin stock was added in a 1:100 dilution, resulting in a total DMSO content of 1% and the desired toxin concentration. DMSO was selected for this assay because it is the least inhibitory of the solvents studied by Busby et al. on CYP1A1,[35] the primary enzyme involved in the hydroxylation of AOH and AME.[26] The well-established solubility of the test compounds in DMSO and DMSO-containing aqueous buffers facilitated laboratory work and ensured consistency with existing literature, thereby improving the comparability of results across studies, including those of Pfeiffer and colleagues.[25] In a preliminary investigation, incubation times of 5 and 10 min were chosen because they fall within the linear range of the transformation rate–time relationship, thereby ensuring initial rate conditions (Figure S1). When the selected incubation time (0–10 min) passed, one part of the sample was pipetted into two parts of ice-cold extraction solvent (acetonitrile–methanol, 1:1, v/v) for reaction termination. Subsequently, the samples were placed into the freezer (−20 °C) for at least an hour, centrifuged (15 min, 18,000g, 4 °C), and further diluted in methanol–water (3:7, v/v) prior to LC–MS measurements. In the solvent control, the toxin was substituted with DMSO in the incubation solution. Control incubations were performed without the cofactor NADPH or with heat-inactivated microsomes (98 °C, 10 min, mixing at 300 rpm).
# (§3) The quantification of selected analytes using external calibration (MS parameters listed in Supporting Information Table S1) was conducted on a high-performance liquid chromatographic system (Dionex UltiMate 3000 UHPLC, Dionex Softron GmbH, Germering, Germany) coupled to a triple quadrupole mass spectrometer (TSQ Vantage, Thermo Fisher Scientific, Waltham, MA, USA), equipped with a heated electrospray ionization (ESI) interface. The applied analytical method is based on Puntscher et al.[28],[36] with slight modifications, which are specified below.
# (§4) In brief, the Ascentis Express C18 column (10 cm × 2.1 mm, 2.7 μm, Supelco, Munich, DE), equipped with the Phenomenex SecurityGuard (C18 Cartridges, 4 × 2.0 mm ID, Phenomenex Ltd. Deutschland, Aschaffenburg, Germany), served as the stationary phase. Eluent A was aqueous ammonium acetate (5 mM, pH adjusted to 8.6 with a 25% ammonia solution), and eluent B was methanol. During the first minute, the column was kept at 30% eluent B. Subsequently, the eluent B content was linearly raised to 100% within 6 min. Thereafter, the column was washed with 100% eluent B for 1.5 min. Lastly, the column was re-equilibrated at the initial conditions, reaching an overall run time of 10 min. The autosampler compartment was kept at 10 °C, while the column oven temperature was maintained at 30 °C. […]
# [2] = Phase I metabolism kinetics (parent toxin loss) in NADPH-fortified rat liver microsomes, LC-MS/MS; format: in vitro ADME, Sprague–Dawley rat; conditions: for microsomal CLint: Sprague-Dawley, rat, pH 7.4, rat LMs, read-out: CLint (intrinsic clearance)
# Protocol: as §1, §2, §3, §4
# [3] = Caco-2 cell monolayers; cited from earlier work
# [4] = Pattern of oxidative metabolites in porcine LMs by HR-MS; format: in vitro ADME, pig; conditions: porcine LMs incubated with AME
# Protocol: as §2
# Pooled high-resolution MS (HR-MS) samples were analyzed on a Vanquish UHPLC system (Thermo Fisher Scientific, Waltham, MA, USA) connected to a dual-pressure linear trap-quadrupole Orbitrap mass analyzer (Velos ETD, Thermo Fisher Scientific, Waltham, MA, USA). The heated ESI interface (source heater temperature: 400 °C) was operated in both positive and negative modes. The mobile and stationary phases were the same as those for the targeted analysis. The column compartment temperature was kept at 40 °C. A multistep gradient was applied at a flow rate of 0.4 mL/min and started with rinsing the column for 1 min at 10% eluent B. Then, the organic content was linearly raised to 100% until the 11th minute. Subsequently, the column was purged with 100% eluent B for two additional minutes. Finally, the initial eluent composition was reset between minutes 13 and 13.5, followed by a 2 min re-equilibration under these conditions, resulting in a total run time of 15.5 min. Data acquisition and evaluation were performed with the software Skyline (v. 21.1.0.146, MacCoss Lab, Department of Genome Sciences, University of Washington, Seattle, WA, USA), XCalibur (v. 2.2SP1.48), and Chromeleon (v. 7.2.6.; both Thermo Fisher Scientific, Waltham, MA, USA).
# As no analytical standards are currently available for the hydroxy (OH) metabolites of AOH and AME, an Alternaria reference mixture containing 4-OH-AOH and 4-OH-AME was used to enable associating peaks with their respective phase I metabolites.
# [5] = Pattern of oxidative metabolites in rat LMs by HR-MS; format: in vitro ADME, Sprague–Dawley rat; conditions: rat LMs incubated with AME
# Protocol: The kinetics of the phase I metabolism of AOH and AME was investigated by incubating human, rat (both 1 mg protein/mL), and porcine LMs (2 mg protein/mL) with 1, 10, 20, 50, and 100 μM AOH or 1, 10, 20, and 50 μM AME based on the protocol by Al-Subeihi et al.[34] The incubation solution contained a final concentration of 3 mM NADPH and 1 mM ascorbic acid in 200 mM Tris–HCl (pH 7.4). After preincubation (37 °C, 1 min, mixing at 250–300 rpm), the toxin stock was added in a 1:100 dilution, resulting in a total DMSO content of 1% and the desired toxin concentration. DMSO was selected for this assay because it is the least inhibitory of the solvents studied by Busby et al. on CYP1A1,[35] the primary enzyme involved in the hydroxylation of AOH and AME.[26] The well-established solubility of the test compounds in DMSO and DMSO-containing aqueous buffers facilitated laboratory work and ensured consistency with existing literature, thereby improving the comparability of results across studies, including those of Pfeiffer and colleagues.[25] […]
# Pooled high-resolution MS (HR-MS) samples were analyzed on a Vanquish UHPLC system (Thermo Fisher Scientific, Waltham, MA, USA) connected to a dual-pressure linear trap-quadrupole Orbitrap mass analyzer (Velos ETD, Thermo Fisher Scientific, Waltham, MA, USA). […]
# [6] = oral exposure, radiolabeled AOH, male NMRI mice; cited from earlier work
# [7] = male, liver microsomes, Michaelis–Menten model, ratio Vmax/Km
# [8] = male, liver microsomes, linear regression, lower concentration range
structure (smiles),measurement,setting,value
"Cc1cc(O)cc2oc(=O)c3c(O)cc(O)cc3c12 [AOH, alternariol]",Concentration decrease,"[1]; human LMs, 1 µM toxin, 5 min",28%
same,Concentration decrease,"[1]; human LMs, 1 µM toxin, 10 min",53%
same,Concentration decrease,"[1]; human LMs, 10 µM toxin, 5 min",11%
same,Concentration decrease,"[1]; human LMs, 10 µM toxin, 10 min",17%
same,Concentration decrease,"[1]; human LMs, 20 µM toxin, 5 min",10%
same,Concentration decrease,"[1]; human LMs, 20 µM toxin, 10 min",20%
same,Concentration decrease,"[1]; human LMs, 50 µM toxin, 5 min",12%
same,Concentration decrease,"[1]; human LMs, 50 µM toxin, 10 min",22%
same,Concentration decrease,"[1]; human LMs, 100 µM toxin, 5 min",20%
same,Concentration decrease,"[1]; human LMs, 100 µM toxin, 10 min",39%
same,Vmax (maximum transformation rate),"[1]; human LMs, within 10 min, Michaelis–Menten model",3370 pmol/mg/min
same,microsomal CLint,[1]; [7],25.8 µL/min/mg
same,microsomal CLint,[1]; [8],19.9 µL/min/mg
same,Km,"[1]; male, liver microsomes, pH 7.4, human LMs 1 mg protein/mL, NADPH, within 10 min, Michaelis–Menten model, read-out: Km (Michaelis constant)",131 µM
same,microsomal CLint,[2]; [7],35.9 µL/min/mg
same,microsomal CLint,[2]; [8],29.9 µL/min/mg
same,Km,"[2]; male, Sprague–Dawley, liver microsomes, pH 7.4, rat LMs 1 mg protein/mL, NADPH, within 10 min, Michaelis–Menten model, read-out: Km (Michaelis constant)",78.7 µM
same,Concentration decrease,"[2]; rat LMs, 1 µM toxin, 5 min",11%
same,Concentration decrease,"[2]; rat LMs, 1 µM toxin, 10 min",19%
same,Concentration decrease,"[2]; rat LMs, 10 µM toxin, 5 min",13%
same,Concentration decrease,"[2]; rat LMs, 10 µM toxin, 10 min",27%
same,Concentration decrease,"[2]; rat LMs, 20 µM toxin, 5 min",14%
same,Concentration decrease,"[2]; rat LMs, 20 µM toxin, 10 min",28%
same,Concentration decrease,"[2]; rat LMs, 50 µM toxin, 5 min",6%
same,Concentration decrease,"[2]; rat LMs, 50 µM toxin, 10 min",9%
same,Concentration decrease,"[2]; rat LMs, 100 µM toxin, 5 min",5%
same,Concentration decrease,"[2]; rat LMs, 100 µM toxin, 10 min",12%
same,Vmax (maximum transformation rate),"[2]; rat LMs, within 10 min, Michaelis–Menten model",2830 pmol/mg/min
same,intestinal absorption,[3],limited intestinal absorption
same,relative abundance among phase I metabolites (in words),[4],one of the main metabolites
same,relative abundance among phase I metabolites (in words),[5],one of the main metabolites
same,bioavailability,[6],less than 10%
